In US9662327B2 (AGIOS PHARMACEUTICALS, INC, priority 2011, dated 2017):

biological target: IDH1 R132H (Homo sapiens (Human), UniProt O75874, R132H); test: Assays for IDH1 R132H Inhibitors (NADPH/aKG, resazurin detection); assay type: biochemical; details: IDH1 R132H enzyme, Table 2; read-out: IDHR132H Activity
Outline: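 Mutant enzyme in 150 mM NaCl, 10 mM MgCl2, 20 mM Tris pH 7.5, 0.03% BSA; compound in DMSO added to substrate mix of 8 uM NADPH and 2 mM aKG. Reaction ran 50 min at room temperature, then resazurin detection mix (30 μM) added for 5 min at room temperature.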

IDH1 R132H, sequence (O75874 whole entry R132H): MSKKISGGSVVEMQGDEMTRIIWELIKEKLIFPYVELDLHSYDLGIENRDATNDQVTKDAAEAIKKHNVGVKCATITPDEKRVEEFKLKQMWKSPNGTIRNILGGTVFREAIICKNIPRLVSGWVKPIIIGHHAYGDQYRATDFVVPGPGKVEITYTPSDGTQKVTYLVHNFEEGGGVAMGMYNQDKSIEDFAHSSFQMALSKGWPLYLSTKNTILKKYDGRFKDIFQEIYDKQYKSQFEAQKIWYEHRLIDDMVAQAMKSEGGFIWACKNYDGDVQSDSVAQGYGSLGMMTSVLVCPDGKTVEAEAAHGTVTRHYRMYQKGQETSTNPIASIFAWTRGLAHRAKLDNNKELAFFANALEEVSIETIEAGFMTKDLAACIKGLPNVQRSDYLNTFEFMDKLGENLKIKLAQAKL

**Q.** With `CC(C)[C@@H]1CN(c2nc(C3CC3)c3c(c2C#N)CC(C)(C)OC3)CCN1C(=O)Nc1ccc(C#N)cc1` [Compound 303, (R)-4-(5-cyano-8-cyclopropyl-3,3-dimethyl-3,4-dihydro-1H-pyrano[3,4-c]pyridin-6-yl)-N-(4-cyanophenyl)-2-isopropylpiperazine-1-carboxamide] as the compound, how does the IC50 read?
**A.** 1000 to 10000 nM

**Q.** With `C[C@@H]1CN(c2nc(C3CCCCC3)c3c(c2C#N)CCOC3)CCN1C(=O)c1cnc2ccccn12` [Compound 227, (R)-8-cyclohexyl-6-(4-(imidazo[1,2-a]pyridine-3-carbonyl)-3-methylpiperazin-1-yl)-3,4-dihydro-1H-pyrano[3,4-c]pyridine-5-carbonitrile] as the compound, how does the IC50 read?
**A.** 1000 to 10000 nM

**Q.** `COCCC(=O)N1CCN(c2nc(C3CCCCC3)c3c(c2C#N)CCOC3)C[C@H]1C` [Compound 240, (R)-8-cyclohexyl-6-(4-(3-methoxypropanoyl)-3-methylpiperazin-1-yl)-3,4-dihydro-1H-pyrano[3,4-c]pyridine-5-carbonitrile] was tested. Which IC50 did it give?
**A.** 1000 to 10000 nM

**Q.** With `CC(C)[C@@H]1CN(c2nc(C3CC3)c3c(c2C#N)CC(C)(C)OC3)CCN1C(=O)Cn1cccn1` [Compound 325, (R)-6-(4-(2-(1H-pyrazol-1-yl)acetyl)-3-isopropylpiperazin-1-yl)-8-cyclopropyl-3,3-dimethyl-3,4-dihydro-1H-pyrano[3,4-c]pyridine-5-carbonitrile] as the compound, how does the IC50 read?
**A.** 500 to 1000 nM

**Q.** For `CC(C)c1nc(N2CCN(C(=O)c3ccoc3)C(c3ccccc3)C2)c(C#N)c2c1COC(C)(C)C2` (stereo not shown) [Compound 155, 6-(4-(furan-3-carbonyl)-3-phenylpiperazin-1-yl)-8-isopropyl-3,3-dimethyl-3,4-dihydro-1H-pyrano[3,4-c]pyridine-5-carbonitrile], which IC50 is on record?
**A.** 1000 to 10000 nM

**Q.** With `Cc1ccn(CC(=O)N2CCN(c3nc(C4CC4)c4c(c3C#N)CC(C)(C)OC4)C[C@H]2C(C)C)n1` [Compound 400, (R)-8-cyclopropyl-6-(3-isopropyl-4-(2-(3-methyl-1H-pyrazol-1-yl)acetyl)piperazin-1-yl)-3,3-dimethyl-3,4-dihydro-1H-pyrano[3,4-c]pyridine-5-carbonitrile] as the compound, how does the IC50 read?
**A.** 1000 to 10000 nM

**Q.** With `CC(C)c1nc(N2CCN(C(=O)c3cocn3)[C@H](C)C2)c(C#N)c2c1COC(C)(C)C2` [Compound 198, (R)-8-isopropyl-3,3-dimethyl-6-(3-methyl-4-(oxazole-4-carbonyl)piperazin-1-yl)-3,4-dihydro-1H-pyrano[3,4-c]pyridine-5-carbonitrile] as the compound, how does the IC50 read?
**A.** 1000 to 10000 nM

**Q.** For `Cc1ccoc1C(=O)N1CCN(c2nc(C3CCCCC3)c3c(c2C#N)CCOC3)C[C@H]1C` [Compound 186, (R)-8-cyclohexyl-6-(3-methyl-4-(3-methylfuran-2-carbonyl)piperazin-1-yl)-3,4-dihydro-1H-pyrano[3,4-c]pyridine-5-carbonitrile], which IC50 is on record?
**A.** 1000 to 10000 nM

**Q.** Which IC50 does the source give for `CC(C)[C@@H]1CN(c2nc(C3CC3)c3c(c2C#N)CC(C)(C)OC3)CCN1C(=O)c1ccoc1` [Compound 180, (R)-8-cyclopropyl-6-(4-(furan-3-carbonyl)-3-isopropylpiperazin-1-yl)-3,3-dimethyl-3,4-dihydro-1H-pyrano[3,4-c]pyridine-5-carbonitrile] here?
**A.** < 500 nM

**Q.** How did the IC50 turn out when `CC(C)[C@@H]1CN(c2nc(C3CC3)c3c(c2C#N)CC(C)(C)OC3)CCN1C(=O)OCCO` [Compound 368, (R)-2-hydroxyethyl 4-(5-cyano-8-cyclopropyl-3,3-dimethyl-3,4-dihydro-1H-pyrano[3,4-c]pyridin-6-yl)-2-isopropylpiperazine-1-carboxylate] was run?
**A.** 500 to 1000 nM

**Q.** Which IC50 does the source give for `COc1cccc(CC(=O)N2CCN(c3nc(C(C)C)c4c(c3C#N)CC(C)(C)OC4)C[C@H]2C)c1` [Compound 221, (R)-8-isopropyl-6-(4-(2-(3-methoxyphenyl)acetyl)-3-methylpiperazin-1-yl)-3,3-dimethyl-3,4-dihydro-1H-pyrano[3,4-c]pyridine-5-carbonitrile] here?
**A.** 1000 to 10000 nM

**Q.** For `COc1ccccc1CC(=O)N1CCN(c2nc(C3CCCCC3)c3c(c2C#N)CCOC3)C[C@H]1C` [Compound 224, (R)-8-cyclohexyl-6-(4-(2-(2-methoxyphenyl)acetyl)-3-methylpiperazin-1-yl)-3,4-dihydro-1H-pyrano[3,4-c]pyridine-5-carbonitrile], which IC50 is on record?
**A.** 1000 to 10000 nM

**Q.** With `Cc1occc1C(=O)N1CCN(c2nc(C(C)C)c3c(c2C#N)CC(C)(C)OC3)C(c2ccccc2)C1` (stereo not shown) [Compound 179, 8-isopropyl-3,3-dimethyl-6-(4-(2-methylfuran-3-carbonyl)-2-phenylpiperazin-1-yl)-3,4-dihydro-1H-pyrano[3,4-c]pyridine-5-carbonitrile] as the compound, how does the IC50 read?
**A.** 1000 to 10000 nM

**Q.** For `CC(=O)N1CCN(c2nc(C3CCCCC3)c3c(c2C#N)CCOC3)C[C@H]1C` [Compound 362, (R)-6-(4-acetyl-3-methylpiperazin-1-yl)-8-cyclohexyl-3,4-dihydro-1H-pyrano[3,4-c]pyridine-5-carbonitrile], which IC50 is on record?
**A.** 1000 to 10000 nM

**Q.** With `CC(C)c1nc(N2CC(C)N(C(=O)NC3CCCCC3)C(C)C2)c(C#N)c2c1COCC2` (stereo not shown) [Compound 108, 4-(5-cyano-8-isopropyl-3,4-dihydro-1H-pyrano[3,4-c]pyridin-6-yl)-N-cyclohexyl-2,6-dimethylpiperazine-1-carboxamide] as the compound, how does the IC50 read?
**A.** 1000 to 10000 nM

**Q.** With `CC(C)c1nc(N2CCN(C(=O)c3cccnc3)[C@H](C)C2)c(C#N)c2c1COC(C)(C)C2` [Compound 249, (R)-8-isopropyl-3,3-dimethyl-6-(3-methyl-4-nicotinoylpiperazin-1-yl)-3,4-dihydro-1H-pyrano[3,4-c]pyridine-5-carbonitrile] as the compound, how does the IC50 read?
**A.** 1000 to 10000 nM

**Q.** How did the IC50 turn out when `CC(C)[C@@H]1CN(c2nc(C3CC3)c3c(c2C#N)CC(C)(C)OC3)CCN1S(=O)(=O)c1cccs1` [Compound 284, (R)-8-cyclopropyl-6-(3-isopropyl-4-(thiophen-2-ylsulfonyl)piperazin-1-yl)-3,3-dimethyl-3,4-dihydro-1H-pyrano[3,4-c]pyridine-5-carbonitrile] was run?
**A.** 1000 to 10000 nM

**Q.** Which IC50 does the source give for `CC(C)c1nc(N2CCN(C(=O)NC3CCCCC3)CC2)c(C#N)c2c1COCC2` [Compound 107, 4-(5-cyano-8-isopropyl-3,4-dihydro-1H-pyrano[3,4-c]pyridin-6-yl)-N-cyclohexylpiperazine-1-carboxamide] here?
**A.** 1000 to 10000 nM

**Q.** With `CC(C)c1nc(N2CCN(C(=O)c3ccco3)C(c3ccccc3)C2)c(C#N)c2c1COC(C)(C)C2` (stereo not shown) [Compound 154, 6-(4-(furan-2-carbonyl)-3-phenylpiperazin-1-yl)-8-isopropyl-3,3-dimethyl-3,4-dihydro-1H-pyrano[3,4-c]pyridine-5-carbonitrile] as the compound, how does the IC50 read?
**A.** 500 to 1000 nM

**Q.** Which IC50 does the source give for `CC[C@@H]1CN(c2nc(C3CC3)c3c(c2C#N)CC(C)(C)OC3)CCN1C(=O)c1cscn1` [Compound 293] here?
**A.** 1000 to 10000 nM

**Q.** Which IC50 does the source give for `COCCC(=O)N1CCN(c2nc(C3CC3)c3c(c2C#N)CC(C)(C)OC3)C[C@H]1C(C)C` [Compound 270, (R)-8-cyclopropyl-6-(3-isopropyl-4-(3-methoxypropanoyl)piperazin-1-yl)-3,3-dimethyl-3,4-dihydro-1H-pyrano[3,4-c]pyridine-5-carbonitrile] here?
**A.** < 500 nM

**Q.** Which IC50 does the source give for `COc1ccccc1CC(=O)N1CCN(c2nc(C(C)C)c3c(c2C#N)CC(C)(C)OC3)C[C@H]1C(C)C` [Compound 216, (R)-8-isopropyl-6-(3-isopropyl-4-(2-(2-methoxyphenyl)acetyl)piperazin-1-yl)-3,3-dimethyl-3,4-dihydro-1H-pyrano[3,4-c]pyridine-5-carbonitrile] here?
**A.** 1000 to 10000 nM

**Q.** How did the IC50 turn out when `CNC(=O)N1CCN(c2nc(C3CC3)c3c(c2C#N)CC(C)(C)OC3)C[C@H]1C(C)C` [Compound 344] was run?
**A.** < 500 nM

**Q.** With `COc1ccc(OC(=O)N2CCN(c3nc(C4CC4)c4c(c3C#N)CC(C)(C)OC4)C[C@H]2C(C)C)cc1` [Compound 337, (R)-4-methoxyphenyl 4-(5-cyano-8-cyclopropyl-3,3-dimethyl-3,4-dihydro-1H-pyrano[3,4-c]pyridine-6-yl)-2-isopropylpiperazine-1-carboxylate] as the compound, how does the IC50 read?
**A.** 1000 to 10000 nM

**Q.** How did the IC50 turn out when `CC1CN(c2nc(C3CCCCC3)c3c(c2C#N)CCOC3)CCN1C(=O)c1ccoc1` (stereo not shown) [Compound 133, 8-cyclohexyl-6-(4-(furan-3-carbonyl)-3-methylpiperazin-1-yl)-3,4-dihydro-1H-pyrano[3,4-c]pyridine-5-carbonitrile] was run?
**A.** 1000 to 10000 nM

**Q.** How did the IC50 turn out when `C[C@@H]1CN(c2nc(C3CCCCC3)c3c(c2C#N)CCOC3)CCN1C(=O)Cc1ccccc1F` [Compound 188, (R)-8-cyclohexyl-6-(4-(2-(2-fluorophenyl)acetyl)-3-methylpiperazin-1-yl)-3,4-dihydro-1H-pyrano[3,4-c]pyridine-5-carbonitrile] was run?
**A.** 1000 to 10000 nM

**Q.** With `C[C@H]1CN(C(=O)c2ccco2)CCN1c1nc(C2CCCCC2)c2c(c1C#N)CCOC2` [Compound 201, (S)-8-cyclohexyl-6-(4-(furan-2-carbonyl)-2-methylpiperazin-1-yl)-3,4-dihydro-1H-pyrano[3,4-c]pyridine-5-carbonitrile] as the compound, how does the IC50 read?
**A.** 1000 to 10000 nM

**Q.** How did the IC50 turn out when `CCCCCNC(=O)N1CCN(c2nc(C3CC3)c3c(c2C#N)CC(C)(C)OC3)C[C@H]1C(C)C` [Compound 327] was run?
**A.** 1000 to 10000 nM

same assay, conditions: IDH1 R132H enzyme, Table 3; read-out: R132H IC50

**Q.** `C/C=C/C(=O)N1CCc2c(C#N)c(N3CCN(C(=O)C4CC4)[C@H](C4CC4)C3)nc(C3CC3)c2C1` [Compound 499, (R,E)-7-but-2-enoyl-3-(4-(cyclopropanecarbonyl)-3-cyclopropylpiperazin-1-yl)-1-cyclopropyl-5,6,7,8-tetrahydro-2,7-naphthyridine-4-carbonitrile] was tested. Which IC50 did it give?
**A.** 500 to 1000 nM

**Q.** `CC(=O)N1CCc2c(C#N)c(N3CCN(C(=O)C4CC4)[C@H](C4CC4)C3)nc(C3CC3)c2C1` [Compound 480, (R)-7-acetyl-3-(4-(cyclopropanecarbonyl)-3-cyclopropylpiperazin-1-yl)-1-cyclopropyl-5,6,7,8-tetrahydro-2,7-naphthyridine-4-carbonitrile] was tested. Which IC50 did it give?
**A.** 500 to 1000 nM

**Q.** `CC(C)[C@@H]1CN(c2nc(C3CC3)c3c(c2C#N)CC(C)(C)OC3)CCN1C(=O)CCc1nnco1` [Compound 448, (R)-6-(4-(3-(1,3,4-oxadiazol-2-yl)propanoyl)-3-isopropylpiperazin-1-yl)-8-cyclopropyl-3,3-dimethyl-3,4-dihydro-1H-pyrano[3,4-c]pyridine-5-carbonitrile] was tested. Which IC50 did it give?
**A.** 500 to 1000 nM
